Values of other authors in patent US20230131859A1, “BIOCONVERSION OF OLEUROPEIN” (SOCIETE DES PROUITS NESTLES S.A., priority 2017, published 2023).

Assays:
[1] = in vivo
[2] = compared with hydroxytyrosol

CC=C1C(O)OC=C(C(=O)OC)C1CC(=O)OCCc1ccc(O)c(O)c1 (centres unmarked) [oleuropein aglycone, 3,4-dihydroxyphenylethanol-elenolic acid]
clearance from the plasma [1]: slower clearance from the plasma compared with hydroxytyrosol and oleuropein

hydroxytyrosol acetate
solubility in the lipophilic phases [2]: more soluble in the lipophilic phases than hydroxytyrosol
